Here are results for 14 compounds from ChEMBL document CHEMBL6115028, “An Amazing 30-Year Journey around the DABO Family: A Medicinal Chemistry Lesson on a Versatile Class of Non-nucleoside HIV-1 Reverse Transcriptase Inhibitors” (J Med Chem, 2025).

Converted amounts (≈) assume the structure as drawn.

Data set [1] is described as follows: Toxicity in African green monkey Vero cells assessed as reduction in cell viability incubated for 72 hrs by MTT assay. It counts as cell-based. The settings on record: chlorocebus sabaeus, read-out: TD50.
The nature of data set [2]: Toxicity in human C8166 cells assessed as reduction in cell viability incubated for 72 hrs by MTT assay. It counts as cell-based. The settings on record: read-out: TD50. Background: Formazan colour is commonly taken as a measure of viable cells.
The test system of data set [3] is Human immunodeficiency virus 1. Put plainly: Antiviral activity against HIV-1 IIIB infected in human C8166 cells assessed as reduction in viral replication measured for 3 days. The data set is classed as functional. The note with it: Human immunodeficiency virus 1, IIIB, C8166, 72 h; time 3 day; read-out: ED50 (the source's name).
For another data set, the system named is Human alphaherpesvirus 1. Put plainly: Antiviral activity against HSV-1 infected in Vero cells by plaque reduction assay. It counts as functional. The settings on record: Human alphaherpesvirus 1, Vero; read-out: ED50 (the source's name). On the technique in general: In a plaque reduction assay, fewer plaques than in the control indicate reduced infectivity or spread.

Data set [4] deals with Human immunodeficiency virus 1. Description: Antiviral activity against HIV-1 harboring RT K103N mutant infected in human MT4 cells assessed as protection against virus-induced cytopathic effect measured for 5 days by MTT assay. The data set is classed as functional, organism-based. The settings on record: Human immunodeficiency virus 1, MT4, 120 h. Background: Cytopathic effects are the visible damage that an infection or toxin causes in cultured cells.

In data set [5] the test system is MT4. Description: Cytotoxicity against human MT4 cells. The data set is classed as functional.
Data set [6] deals with Human immunodeficiency virus type 1 reverse transcriptase (Human immunodeficiency virus 1, UniProt Q72547). Description: Inhibition of recombinant HIV-1 reverse transcriptase associated RNA-dependent DNA polymerase activity.
In data set [7] the test system is Human immunodeficiency virus 1. Description: Antiviral activity against HIV-1 infected in human MT4 cells assessed as reduction in virus induced cytopathic effect measured for 4 days by MTT assay. The data set is classed as functional, organism-based. The note with it: Human immunodeficiency virus 1, MT4, 96 h.
Data set [8] has as its system MT4. Put plainly: Cytotoxicity against human MT4 cells assessed as reduction in cell viability by MTT assay. It counts as functional.
The nature of data set [9]: Selectivity index, ratio of CC50 for human MT4 cells to EC50 for antiviral activity against HIV-1 infected in human MT4 cells. The data set is classed as toxicity, cell-based. The note with it: read-out: Ratio CC50/EC50.
In data set [10] the test system is Staphylococcus aureus. Put plainly: Antibacterial activity against Staphylococcus aureus. It counts as functional.
For a further data set, the system named is Bacillus subtilis. Put plainly: Antibacterial activity against Bacillus subtilis. It counts as functional.
The subject of data set [11] is Staphylococcus aureus. Description: Antibacterial activity against Staphylococcus aureus assessed as reduction in microbial growth measured for 18 hrs by CLSI based broth microdilution method. It counts as functional.
The test system of data set [12] is Human immunodeficiency virus 1. Put plainly: Antiviral activity against wild type HIV-1 NL4-3 infected in human MT4 cells assessed as reduction in viral replication. The settings on record: Human immunodeficiency virus 1, NL4-3, MT4; read-out: EC50. The data set is classed as functional, organism-based.
Data set [13] relates to Human immunodeficiency virus 1. Description: Antiviral activity against HIV-1 NL4-3 harboring infected Y181C mutant infected in human MT4 cells assessed as reduction in viral replication. The data set is classed as functional, organism-based. The note with it: Human immunodeficiency virus 1, NL4-3, MT4.
For data set [14], the system named is Human immunodeficiency virus 1. Put plainly: Antiviral activity against HIV-1 NL4-3 harboring infected K103N mutant infected in human MT4 cells assessed as reduction in viral replication. The note with it: Human immunodeficiency virus 1, NL4-3, MT4. It counts as functional, organism-based.
Data set [15] deals with Human immunodeficiency virus 1. Put plainly: Antiviral activity against NNRTI-resistant HIV-1 harboring E138K mutant infected in human MT4 cells assessed as protection against virus-induced cytopathic effect by MTT assay. It counts as functional, organism-based. The settings on record: Human immunodeficiency virus 1, MT4.
The subject of data set [16] is Human immunodeficiency virus 1. Put plainly: Antiviral activity against HIV-1 IIIB infected in human C8166 cells assessed as reduction in virus-induced cytopathic effect incubated for 3 days by MTT assay. The settings on record: Human immunodeficiency virus 1, IIIB, C8166, 72 h. The data set is classed as functional, organism-based.
In another data set the test system is C8166. Description: Cytotoxicity against human C8166 cells assessed as reduction in cell viability incubated for 72 hrs by MTT assay. The data set is classed as functional.
Data set [17] is described as follows: Selectivity index, ratio of CC50 for human C8166 cells to EC50 for antiviral activity against HIV-1 IIIB infected in human C8166 cells. The data set is classed as toxicity, cell-based. The settings on record: read-out: Ratio CC50/EC50.
The test system of data set [18] is Human immunodeficiency virus 1. Description: Antiviral activity against wild type HIV-1 IIIB infected in human MT4 cells. The settings on record: Human immunodeficiency virus 1, IIIB. It counts as functional, organism-based.
The test system of the next data set is dengue virus type 1. Description: Antiviral activity Dengue virus 1. It counts as functional, organism-based.
Another data set relates to dengue virus type 2. Description: Antiviral activity Dengue virus 2. The data set is classed as functional, organism-based.
Another data set concerns dengue virus type 3. Put plainly: Antiviral activity Dengue virus 3. It counts as functional, organism-based.
In another data set the test system is dengue virus type 4. Put plainly: Antiviral activity Dengue virus 4. The data set is classed as functional, organism-based.
Data set [19] can be described thus: Cytotoxicity against African green monkey Vero cells. It counts as toxicity, cell-based. The settings on record: chlorocebus sabaeus.
Data set [20] relates to Human immunodeficiency virus 1. Put plainly: Antiviral activity against HIV-1 harboring L100I mutant infected in human MT4 cells assessed as […]. The data set is classed as functional, organism-based. The note with it: Human immunodeficiency virus 1, MT4.
The test system of data set [21] is Human immunodeficiency virus 1. Description: Antiviral activity against HIV1 harboring K103N mutant infected in MT4 cells. It counts as functional, organism-based. The note with it: Human immunodeficiency virus 1, MT4.
Data set [22] in a line: Selectivity index, ratio of CC50 for human MT4 cells to EC50 for antiviral activity against HIV1 infected in human MT4 cells. It counts as toxicity, cell-based. The settings on record: read-out: Ratio CC50/EC50.
Data set [23] relates to MT4. Put plainly: Cytotoxicity against human MT4 cells assessed as reduction in […] incubated for 4 days by MTT assay. The note with it: MT4, 96 h, time 4 day. It counts as functional.
The test system of data set [24] is Human immunodeficiency virus 1. Description: Antiviral activity against HIV1 IIIB infected in human MT4 cells assessed as reduction in virus-induced cytopathic effect incubated for 4 days by MTT assay. The data set is classed as functional, organism-based. The settings on record: Human immunodeficiency virus 1, IIIB, MT4, 96 h.
A short description of data set [25]: Inhibition of Hepatitis C virus NS5B RNA dependent RNA polymerase. The arrangement: species or system Hepacivirus hominis.
A short description of data set [26]: Cytotoxicity against African green monkey Vero cells assessed as reduction in cell viability measured after 96 hrs by MTT assay. It counts as toxicity, cell-based. The note with it: chlorocebus sabaeus.
Another data set has as its system Zika virus. Description: Antiviral activity against Zika virus infected in Vero cells assessed as reduction in viral DNA replication. The data set is classed as functional, organism-based.
Data set [27] is described as follows: Cytotoxicity against African green monkey Vero cells assessed as reduction in cell growth measured after 96 hrs by MTT assay. It counts as toxicity, cell-based. The note with it: chlorocebus sabaeus.
The next data set relates to Hepatitis B virus. Description: Antiviral activity against Hepatitis B virus infected in human HepG2.2.15 cells assessed as inhibition of HBV DNA production by qRT-PCR analysis. The data set is classed as functional, organism-based.

Take `COc1ccc(Cc2cc(N)nc(OC)n2)cc1`: the CC50 at 72 h in data set [1] and in data set [2] was 50 µg/mL (≈ 204 µM) in each case. Further, the EC50 in data set [3] is 12.5 µg/mL (≈ 51 µM); in the data set on Human alphaherpesvirus 1, 25 µg/mL (≈ 102 µM).
On to `O=C1c2ccccc2C(=O)N1CCSc1nc(Cc2c(F)cccc2F)cc(=O)[nH]1`, for which the EC50 in data set [4] came to 100 µM. The CC50 in the data set with MT4 [5] is more than 100 µM.
With `CCC(C)Oc1nc(N)cc(S(=O)(=O)c2cccc(C)c2)n1` (configuration not stated), the IC50 in data set [6] is 26.5 µM. Also, in data set [7], the EC50 is 4.7 µM. For the same compound, in the data set with MT4 [8], the CC50 was more than 200 µM. The selectivity ratio in [9] is more than 43.
`N#Cc1c(-c2ccc(Br)cc2)nc(S/C(=N/Nc2ccc(O)cc2)C(=O)c2ccc(Br)cc2)[nH]c1=O`: the MIC in the data set on Staphylococcus aureus [10] was 1.17 µg/mL (≈ 1.87 µM); against Bacillus subtilis it was 2.34 µg/mL (≈ 3.74 µM).
For `COc1ccc(C(Cl)(Cl)c2cc(Cl)nc(OC)n2)cc1`, the CC50 at 72 h stood at 12.5 µg/mL (≈ 37.5 µM) in data set [1] and 25 µg/mL (≈ 74.9 µM) in [2]. Also, the MIC in the data set on Staphylococcus aureus [11] came out at 6.2 µg/mL.
With `COc1ccc(CN(C)c2nc(C(C)c3c(F)cccc3F)c(C)c(=O)[nH]2)cc1` (configuration not stated), the EC50 in data set [12] is 3 nM; in [13], 80 nM; in data set [14], 102 nM; in data set [15], 102 nM.
Take `CCCCOc1nc(Cc2ccc(OC)cc2)cc(=O)[nH]1`: the CC50 at 72 h in data set [1] and in [2] was 100 µg/mL (≈ 347 µM) throughout. For the same compound, the EC50 in [3] stood at 25 µg/mL (≈ 86.7 µM); in the data set with Human alphaherpesvirus 1, 50 µg/mL (≈ 173 µM).
In the case of `CCc1c(CC23CC4CC(CC(C4)C2)C3)nc(SCC(=O)c2ccccc2)[nH]c1=O`, the EC50 in [16] and in [18] was 190 nM in each case. Besides, the CC50 in the data set with C8166 stood at 20.4 µM. Further, the selectivity ratio in data set [17] is 107.
As to `CCc1c(CC2CCCCC2)nc(SCc2n[nH]c(-c3ccc(F)cc3)c2Cl)[nH]c1=O`, the EC50 with dengue virus type 1 is 17.5 µM; in the data set with dengue virus type 2, 13.2 µM; with dengue virus type 3, 6.8 µM; in the data set with dengue virus type 4, 11.4 µM. Besides, the CC50 in [19] was more than 200 µM.
`O=c1cc(Cc2ccccc2)nc(NCCCCO)[nH]1`: the EC50 in data set [20] came to 525 µM; in [21], 840 µM.
As to `CCC(C)Sc1nc(O)cc(Cc2cccc3ccccc23)n1` (configuration not stated), the selectivity ratio in data set [22] is more than 909. Moreover, the CC50 with MT4 [23] was more than 300 µM. Also, the EC50 in data set [24] is 330 nM.
In turn, `CCc1c(CC2CCCCC2)nc(SCC(=O)Nc2cc(F)cc(F)c2)[nH]c1=O` came in with an IC50 in [25] of 89 nM. For the same compound, the CC50 at 96 h is more than 10 µM in data set [26] and 60.2 µM in data set [27]. For the same compound, the EC50 with Zika virus was more than 50 µM.
In the case of `CCc1c(CC2CCCCC2)nc(SCc2n[nH]c(-c3ccc(F)c(F)c3)c2Cl)[nH]c1=O`, the EC50 with dengue virus type 1 is 1.47 µM; in the data set with dengue virus type 2 it was 9.23 µM; with dengue virus type 3 it was 7.08 µM; with dengue virus type 4 it was 8.91 µM. Further, the CC50 in data set [19] was more than 200 µM.
Regarding `O=c1[nH]c(SC2O[C@H](CO)[C@H](O)[C@@H](O)[C@@H]2O)nc(Cc2ccccc2)c1Cc1ccccc1` (some centres not stated), the EC50 in the data set on Hepatitis B virus was determined as 200 nM.

Usually IC50 stands for the concentration that gives 50% inhibition. One may read the MIC as the lowest concentration found to suppress growth.
